According to publication PMC4685510, “A Cell Biologist’s Field Guide to Aurora Kinase Inhibitors” (Frontiers in Oncology, 2015):

How the values were obtained:
Assay in all cases: biochemical
Format in all cases: biochemical
[1] = target: T1, 363 human kinases (including Aurora A/B/C) (Homo sapiens, UniProt O75385); settings: ULK1; for remaining activity at 0.1 µM: 100 nM; for remaining activity at 0.1 µM / remaining activity at 0.5 µM: read-out: % Enzyme Activity (relative to DMSO controls)
T1 sequence (O75385 1-1050): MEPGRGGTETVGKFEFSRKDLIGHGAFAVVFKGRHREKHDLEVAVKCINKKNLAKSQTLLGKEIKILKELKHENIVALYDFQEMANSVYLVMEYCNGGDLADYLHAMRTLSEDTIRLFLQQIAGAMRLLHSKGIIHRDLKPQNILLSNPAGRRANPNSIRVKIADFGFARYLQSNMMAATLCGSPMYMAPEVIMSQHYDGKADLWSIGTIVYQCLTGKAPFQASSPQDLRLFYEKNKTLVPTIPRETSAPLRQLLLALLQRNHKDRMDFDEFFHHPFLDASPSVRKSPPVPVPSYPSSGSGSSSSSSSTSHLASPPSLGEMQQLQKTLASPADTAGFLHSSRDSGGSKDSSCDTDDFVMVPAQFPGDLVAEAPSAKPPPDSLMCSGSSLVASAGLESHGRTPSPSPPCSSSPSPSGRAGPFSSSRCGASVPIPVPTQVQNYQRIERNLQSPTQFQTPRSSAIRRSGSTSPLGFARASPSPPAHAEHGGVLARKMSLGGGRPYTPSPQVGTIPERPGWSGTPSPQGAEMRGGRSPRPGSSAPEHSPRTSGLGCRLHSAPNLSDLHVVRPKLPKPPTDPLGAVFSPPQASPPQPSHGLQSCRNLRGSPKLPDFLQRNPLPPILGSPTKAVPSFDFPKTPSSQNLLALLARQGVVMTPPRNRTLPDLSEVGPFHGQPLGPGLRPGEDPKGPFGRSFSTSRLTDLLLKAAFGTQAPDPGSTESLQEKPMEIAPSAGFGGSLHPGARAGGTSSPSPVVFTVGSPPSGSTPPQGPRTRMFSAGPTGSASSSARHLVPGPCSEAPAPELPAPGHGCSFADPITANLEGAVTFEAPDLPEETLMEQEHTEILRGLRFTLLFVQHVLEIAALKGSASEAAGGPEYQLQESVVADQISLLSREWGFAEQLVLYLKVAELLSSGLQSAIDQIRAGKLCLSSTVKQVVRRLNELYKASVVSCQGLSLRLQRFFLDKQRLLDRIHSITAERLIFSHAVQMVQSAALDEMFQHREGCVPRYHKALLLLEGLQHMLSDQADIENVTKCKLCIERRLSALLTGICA
Excerpt: (§1) However, the Aurora A/B selectivity ratios derived from our in vitro and in vivo data can be compared to prioritize inhibitors.

[2] = target: 363 human kinases (including Aurora A/B/C) (Homo sapiens, UniProt P08069); settings: IGF1R; for remaining activity at 0.1 µM: 100 nM; for remaining activity at 0.1 µM / remaining activity at 0.5 µM: read-out: % Enzyme Activity (relative to DMSO controls)
Excerpt: as §1

[3] = target: 363 human kinases (including Aurora A/B/C) (Homo sapiens, UniProt Q02750); settings: MEK1; for remaining activity at 0.1 µM: 100 nM; for remaining activity at 0.1 µM / remaining activity at 0.5 µM: read-out: % Enzyme Activity (relative to DMSO controls)
Excerpt: as §1

[4] = target: T2, 363 human kinases (including Aurora A/B/C) (Homo sapiens, UniProt Q09013); settings: DMPK, [ATP] 15 µM; for remaining activity at 0.1 µM: 100 nM; for remaining activity at 0.1 µM / remaining activity at 0.5 µM: read-out: % Enzyme Activity (relative to DMSO controls)
T2 sequence (Q09013 1-629): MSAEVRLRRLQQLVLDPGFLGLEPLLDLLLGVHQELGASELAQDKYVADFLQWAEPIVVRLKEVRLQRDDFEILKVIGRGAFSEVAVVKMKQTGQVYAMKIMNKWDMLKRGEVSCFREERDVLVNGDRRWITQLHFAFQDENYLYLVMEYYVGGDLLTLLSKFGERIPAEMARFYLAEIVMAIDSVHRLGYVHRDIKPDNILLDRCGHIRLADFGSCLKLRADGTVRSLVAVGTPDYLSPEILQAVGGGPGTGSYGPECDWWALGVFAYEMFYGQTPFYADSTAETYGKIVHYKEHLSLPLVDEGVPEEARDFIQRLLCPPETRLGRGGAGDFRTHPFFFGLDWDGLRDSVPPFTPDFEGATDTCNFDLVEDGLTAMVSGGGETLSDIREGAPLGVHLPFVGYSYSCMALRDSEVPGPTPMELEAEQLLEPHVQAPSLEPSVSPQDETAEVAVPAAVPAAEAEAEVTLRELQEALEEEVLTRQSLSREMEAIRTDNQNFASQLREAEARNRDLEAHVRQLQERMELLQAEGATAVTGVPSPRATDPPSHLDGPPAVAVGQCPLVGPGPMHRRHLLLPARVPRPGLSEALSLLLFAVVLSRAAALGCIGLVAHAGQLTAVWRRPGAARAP
Excerpt: as §1

[5] = target: 363 human kinases (including Aurora A/B/C) (Homo sapiens, UniProt Q14680); settings: MELK; for remaining activity at 0.1 µM: 100 nM; for remaining activity at 0.1 µM / remaining activity at 0.5 µM: read-out: % Enzyme Activity (relative to DMSO controls)
Excerpt: as §1

[6] = target: 363 human kinases (including Aurora A/B/C) (Homo sapiens, UniProt Q8NEV4); settings: MYO3A; for remaining activity at 0.1 µM: 100 nM; for remaining activity at 0.1 µM / remaining activity at 0.5 µM: read-out: % Enzyme Activity (relative to DMSO controls)
Excerpt: as §1

[7] = target: T3, 363 human kinases (including Aurora A/B/C) (Homo sapiens, UniProt Q99986); settings: VRK1; for remaining activity at 0.1 µM: 100 nM; for remaining activity at 0.1 µM / remaining activity at 0.5 µM: read-out: % Enzyme Activity (relative to DMSO controls)
T3 sequence (Q99986 1-396): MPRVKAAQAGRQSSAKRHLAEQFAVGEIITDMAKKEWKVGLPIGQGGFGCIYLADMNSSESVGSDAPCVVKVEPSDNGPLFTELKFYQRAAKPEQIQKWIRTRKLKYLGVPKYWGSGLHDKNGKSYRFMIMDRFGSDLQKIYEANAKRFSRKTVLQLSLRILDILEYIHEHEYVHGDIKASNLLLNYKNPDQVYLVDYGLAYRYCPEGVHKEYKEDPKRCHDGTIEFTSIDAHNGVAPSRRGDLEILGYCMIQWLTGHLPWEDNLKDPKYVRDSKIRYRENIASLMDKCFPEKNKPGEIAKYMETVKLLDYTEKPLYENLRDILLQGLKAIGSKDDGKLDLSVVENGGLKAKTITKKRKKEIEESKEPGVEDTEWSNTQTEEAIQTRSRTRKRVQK
Excerpt: as §1

[8] = target: 363 human kinases (including Aurora A/B/C) (Homo sapiens, UniProt Q9H2G2); settings: SLK/STK2; for remaining activity at 0.1 µM: 100 nM; for remaining activity at 0.1 µM / remaining activity at 0.5 µM: read-out: % Enzyme Activity (relative to DMSO controls)
Sequence of 363 human kinases (including Aurora A/B/C) (Homo sapiens, UniProt Q9H2G2) (Q9H2G2 whole entry): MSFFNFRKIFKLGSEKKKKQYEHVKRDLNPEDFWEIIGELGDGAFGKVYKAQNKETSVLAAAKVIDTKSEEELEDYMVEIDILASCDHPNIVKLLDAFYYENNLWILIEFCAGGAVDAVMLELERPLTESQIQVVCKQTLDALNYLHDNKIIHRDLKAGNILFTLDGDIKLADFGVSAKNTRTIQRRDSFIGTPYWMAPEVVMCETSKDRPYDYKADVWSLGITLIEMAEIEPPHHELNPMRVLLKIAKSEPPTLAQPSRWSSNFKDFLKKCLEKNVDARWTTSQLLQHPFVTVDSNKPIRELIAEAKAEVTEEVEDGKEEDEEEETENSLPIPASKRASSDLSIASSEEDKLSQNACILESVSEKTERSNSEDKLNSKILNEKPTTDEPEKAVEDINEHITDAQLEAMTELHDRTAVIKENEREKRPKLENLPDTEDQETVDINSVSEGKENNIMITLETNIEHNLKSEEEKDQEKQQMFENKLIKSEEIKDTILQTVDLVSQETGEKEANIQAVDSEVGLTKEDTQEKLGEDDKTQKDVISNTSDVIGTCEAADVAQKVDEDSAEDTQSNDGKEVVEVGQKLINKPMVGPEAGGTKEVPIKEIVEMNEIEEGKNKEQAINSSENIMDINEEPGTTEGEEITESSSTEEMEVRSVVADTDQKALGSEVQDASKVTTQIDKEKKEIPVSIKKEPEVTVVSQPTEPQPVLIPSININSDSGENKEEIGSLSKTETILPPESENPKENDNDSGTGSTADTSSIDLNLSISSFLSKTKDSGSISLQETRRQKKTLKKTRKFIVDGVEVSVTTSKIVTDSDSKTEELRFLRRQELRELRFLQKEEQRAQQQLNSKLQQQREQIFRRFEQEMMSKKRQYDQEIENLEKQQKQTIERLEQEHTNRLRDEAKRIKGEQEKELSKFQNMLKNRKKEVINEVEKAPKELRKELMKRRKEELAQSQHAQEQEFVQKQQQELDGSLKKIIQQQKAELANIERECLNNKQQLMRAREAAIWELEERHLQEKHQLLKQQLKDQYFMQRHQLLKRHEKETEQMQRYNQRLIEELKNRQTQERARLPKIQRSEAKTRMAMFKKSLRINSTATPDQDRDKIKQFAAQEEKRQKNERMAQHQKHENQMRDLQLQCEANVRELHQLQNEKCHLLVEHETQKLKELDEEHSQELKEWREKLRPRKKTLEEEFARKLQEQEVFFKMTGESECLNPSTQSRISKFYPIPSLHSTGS
Excerpt: as §1

Sequence of 363 human kinases (including Aurora A/B/C) (Homo sapiens, UniProt Q14680) (Q14680 whole entry): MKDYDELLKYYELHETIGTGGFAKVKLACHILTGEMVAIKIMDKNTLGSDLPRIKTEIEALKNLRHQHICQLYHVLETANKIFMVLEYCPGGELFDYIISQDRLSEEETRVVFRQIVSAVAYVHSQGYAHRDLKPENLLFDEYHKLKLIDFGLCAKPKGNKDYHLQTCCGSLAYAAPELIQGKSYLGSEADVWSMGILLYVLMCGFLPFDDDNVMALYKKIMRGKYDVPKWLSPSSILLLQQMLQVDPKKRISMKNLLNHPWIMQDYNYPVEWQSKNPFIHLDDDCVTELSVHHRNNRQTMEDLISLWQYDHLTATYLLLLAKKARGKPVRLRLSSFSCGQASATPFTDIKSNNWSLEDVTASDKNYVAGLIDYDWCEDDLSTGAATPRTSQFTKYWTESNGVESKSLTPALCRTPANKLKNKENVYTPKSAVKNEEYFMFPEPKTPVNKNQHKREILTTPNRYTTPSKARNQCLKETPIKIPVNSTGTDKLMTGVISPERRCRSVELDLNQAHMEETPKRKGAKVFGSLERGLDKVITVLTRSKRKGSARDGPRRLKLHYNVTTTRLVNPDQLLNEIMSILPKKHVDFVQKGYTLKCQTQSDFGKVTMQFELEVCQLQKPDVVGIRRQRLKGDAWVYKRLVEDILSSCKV
Sequence of 363 human kinases (including Aurora A/B/C) (Homo sapiens, UniProt P08069) (P08069 31-1367): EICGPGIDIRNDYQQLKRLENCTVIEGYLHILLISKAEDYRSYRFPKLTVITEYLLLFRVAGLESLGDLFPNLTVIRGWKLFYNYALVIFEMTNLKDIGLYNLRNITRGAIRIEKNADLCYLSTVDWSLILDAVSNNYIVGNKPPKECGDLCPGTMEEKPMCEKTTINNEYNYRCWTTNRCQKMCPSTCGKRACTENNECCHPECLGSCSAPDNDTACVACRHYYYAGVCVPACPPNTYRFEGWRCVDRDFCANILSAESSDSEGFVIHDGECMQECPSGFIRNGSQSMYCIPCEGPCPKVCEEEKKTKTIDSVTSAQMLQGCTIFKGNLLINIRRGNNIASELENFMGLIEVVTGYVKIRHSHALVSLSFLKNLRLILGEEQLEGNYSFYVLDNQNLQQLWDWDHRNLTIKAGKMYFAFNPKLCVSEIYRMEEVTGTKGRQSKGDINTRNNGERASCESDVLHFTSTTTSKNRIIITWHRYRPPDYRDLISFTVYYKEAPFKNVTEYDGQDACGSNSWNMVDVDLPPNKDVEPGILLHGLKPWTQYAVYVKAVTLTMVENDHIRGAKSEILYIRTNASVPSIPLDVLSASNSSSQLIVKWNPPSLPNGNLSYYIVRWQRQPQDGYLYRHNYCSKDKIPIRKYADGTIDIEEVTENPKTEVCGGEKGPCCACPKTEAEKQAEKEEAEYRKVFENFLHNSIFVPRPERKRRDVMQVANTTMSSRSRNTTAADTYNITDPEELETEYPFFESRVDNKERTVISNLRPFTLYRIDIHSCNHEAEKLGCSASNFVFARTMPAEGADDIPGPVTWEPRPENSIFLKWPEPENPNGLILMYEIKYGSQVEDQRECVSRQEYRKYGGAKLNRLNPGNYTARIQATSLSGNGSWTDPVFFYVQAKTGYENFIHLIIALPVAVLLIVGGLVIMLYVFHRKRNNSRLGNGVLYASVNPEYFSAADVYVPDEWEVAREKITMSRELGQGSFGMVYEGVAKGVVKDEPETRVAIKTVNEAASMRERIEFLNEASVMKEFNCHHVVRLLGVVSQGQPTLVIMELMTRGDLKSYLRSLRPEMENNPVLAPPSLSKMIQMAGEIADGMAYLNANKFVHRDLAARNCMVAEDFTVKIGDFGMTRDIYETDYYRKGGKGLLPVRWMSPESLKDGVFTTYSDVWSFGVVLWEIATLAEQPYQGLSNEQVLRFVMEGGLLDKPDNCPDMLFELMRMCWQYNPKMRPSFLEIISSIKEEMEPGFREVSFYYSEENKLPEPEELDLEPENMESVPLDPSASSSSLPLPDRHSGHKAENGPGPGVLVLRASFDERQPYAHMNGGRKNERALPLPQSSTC
Sequence of 363 human kinases (including Aurora A/B/C) (Homo sapiens, UniProt Q02750) (Q02750 whole entry): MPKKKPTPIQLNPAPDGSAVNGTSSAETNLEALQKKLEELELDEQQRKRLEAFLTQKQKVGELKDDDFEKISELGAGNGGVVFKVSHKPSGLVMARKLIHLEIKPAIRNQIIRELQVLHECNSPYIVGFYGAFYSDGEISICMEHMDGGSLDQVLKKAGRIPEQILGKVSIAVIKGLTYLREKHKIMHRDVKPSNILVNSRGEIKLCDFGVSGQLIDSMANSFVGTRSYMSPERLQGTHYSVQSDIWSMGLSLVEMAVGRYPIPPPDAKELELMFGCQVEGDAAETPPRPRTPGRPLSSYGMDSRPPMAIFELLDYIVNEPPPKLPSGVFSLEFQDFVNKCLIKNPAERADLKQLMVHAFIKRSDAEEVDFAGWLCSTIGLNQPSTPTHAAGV

Structure (SMILES) | remaining activity at 0.1 µM [1] [%] | remaining activity at 0.1 µM [2] [%] | remaining activity at 0.1 µM [3] [%] | remaining activity at 0.1 µM [4] [%] | remaining activity at 0.1 µM [5] [%] | remaining activity at 0.1 µM [6] [%] | remaining activity at 0.1 µM [7] [%] | remaining activity at 0.1 µM [8] [%] | remaining activity at 0.5 µM ([1]; 500 nM) [%] | remaining activity at 0.5 µM ([2]; 500 nM) [%] | remaining activity at 0.5 µM ([3]; 500 nM) [%] | remaining activity at 0.5 µM ([4]; 500 nM) [%] | remaining activity at 0.5 µM ([5]; 500 nM) [%] | remaining activity at 0.5 µM ([6]; 500 nM) [%] | remaining activity at 0.5 µM ([7]; 500 nM) [%] | remaining activity at 0.5 µM ([8]; 500 nM) [%] | also measured
CCn1cc(-c2ccnc3[nH]c(-c4cccc(CN(C)C)c4)cc23)c(-c2ccc(NC(=O)N(C)C)cc2)n1 [GSK1070916] | 111 | 97.9 | 102 | 114 | 95.7 | 92.9 | 89.3 | 95.2 | – | – | – | – | – | – | – | – | –
O=C(c1cccc(Cl)c1F)N1CCN(Cc2cccc(Nc3nccs3)n2)CC1 [MK-8745] | – | – | – | – | – | – | – | – | 93.8 | 66.7 | 97 | 115 | 95.9 | 71.2 | 97.3 | 77.7 | % Enzyme Activity (relative to DMSO controls) ([1]; 500 nM): 92.67%; % Enzyme Activity (relative to DMSO controls) ([2]; 500 nM): 65.00%; % Enzyme Activity (relative to DMSO controls) ([3]; 500 nM): 96.32%; % Enzyme Activity (relative to DMSO controls) ([4]; 500 nM): 114.90%; % Enzyme Activity (relative to DMSO controls) ([5]; 500 nM): 93.77%; % Enzyme Activity (relative to DMSO controls) ([6]; 500 nM): 66.28%; % Enzyme Activity (relative to DMSO controls) ([7]; 500 nM): 94.39%; % Enzyme Activity (relative to DMSO controls) ([8]; 500 nM): 77.19%
O=C(O)[C@]1(Cc2cccc(Nc3nccs3)n2)CC[C@@H](Oc2cccc(Cl)c2F)CC1 [MK-5108] | 107 | 81.1 | 93.4 | 105 | 109 | 90.8 | 86.9 | 53.5 | 104 | 43.9 | 96.2 | 115 | 112 | 131 | 94 | 16.7 | –
